Reference: patent US20040219189A1 (priority 2001, published 2004)

Columns and labels:
kainate receptors = conditions: Narita et al. 1993; cited from earlier work
[1] = tested on: ventromedial nucleus of hypothalamus (VMH) of rat; conditions: VMH stimulated by water absorbent polymers, Yokawa et al. 1990; cited from earlier work
Arbor Acres broilers = test: Fattening of broilers with feed containing GABA (day 21 to day 41 after birth); format: in vivo; conditions: for increase in the body weight per 1 kg of feed during day 21 to day 41 after birth: compared to 0% group (p<0.05), FIG. 2; for increase in the body weight from day 21 to day 41 after birth: FIG. 1

## C=C(C)[C@H]1CN[C@H](C(=O)O)[C@H]1CC(=O)O [kainate]
Kainate receptors
  running activity in rat: induced

## O=C1N=c2cc([N+](=O)[O-])c([N+](=O)[O-])cc2=NC1=O [DNQX, 6,7-dinitroquinoxaline-2,3-dione]
Kainate receptors
  inhibition of kainate-induced running activity in rat: inhibited

## NCCCC(=O)O [GABA, γ-aminobutyric acid]
[1]
  induction of rat running activity caused by polymers: inhibited
Arbor Acres broilers; 0.5% GABA additive rate
  increase in the body weight per 1 kg of feed during day 21 to day 41 after birth: significant increase
Arbor Acres broilers; 0.5% additive rate of GABA in feed
  increase in the body weight from day 21 to day 41 after birth: tendency of increase was also observed at 0.5% but the significant difference was not clearly observed
Arbor Acres broilers; 1% GABA additive rate
  increase in the body weight per 1 kg of feed during day 21 to day 41 after birth: significant increase
Arbor Acres broilers; 1% additive rate of GABA in feed
  increase in the body weight from day 21 to day 41 after birth: maximum increase
Arbor Acres broilers; 3% GABA additive rate
  increase in the body weight per 1 kg of feed during day 21 to day 41 after birth: significant increase
